Laboratory results from article PMC12207908, “The broad‐spectrum antimicrobial peptide BMAP‐27B potentiates carbapenems against NDM‐producing pathogens in food animals” (mLife, 2025).
No end group written: not given here.

Tests used:
BALB/c mice = assay: In vivo biocompatibility; settings: 5, 10, and 20 mg/kg intraperitoneal, once daily
Procedure: Male BALB/c mice (6–8 weeks of age, 18 ± 2 g) were purchased from Tengxin Biotechnology Co., Ltd., for the animal studies. Healthy male BALB/c mice were randomly divided into four groups, with six mice per group. Mice in the three experimental groups received intraperitoneal injections of peptide solutions at doses of 5, 10, and 20 mg/kg, while the control group received injections of PBS. Injections were administered once daily for five consecutive days, and the body weight of each mouse was recorded daily. On the sixth day, the mice were euthanized under deep anesthesia and blood samples were collected for biochemical analysis, including AST, CREA, UREA, and ALT. The livers and kidneys were subsequently weighed, fixed in 4% paraformaldehyde, and subjected to histopathological examination using H&E staining.

Acinetobacter baumannii = assay type: cell-based
Procedure: The MIC of BMAP‐27B and other antibiotics was determined using the broth microdilution method, following the guidelines established by the Clinical and Laboratory Standards Institute (CLSI). Briefly, the bacterial cultures were grown to the logarithmic growth phase and subsequently diluted in Mueller–Hinton broth (MHB) to achieve a final concentration of 1 × 10^6 CFU/ml. BMAP‐27B and the other antibiotics were prepared in twofold serial dilutions in MHB and mixed with an equal volume of bacterial suspension in 96‐well polypropylene microtiter plates.

bacterial suspension = assay: Antimicrobial activity in varying concentrations of proteases and serum; assay type: in vitro ADME; settings: trypsin or proteinase K, 1:1 (v/v) incubation 1 h, diluted to 2×MIC, then 18-24 h at 37℃ with bacteria (Figure S1)
Procedure: The above mixture was added to the bacterial suspension and incubated at 37℃ for 18-24 hours. Finally, the absorbance of […] was measured and used to calculate the survival rate of bacteria.

CREC6 and CRKP2 = assay type: in vitro ADME, Escherichia coli and Klebsiella pneumoniae
Procedure: (§1) The antibacterial activity of the treated peptide was determined using CREC6 and CRKP2 as models. Bacterial colony survival was quantified by measuring the absorbance at 600 nm using a microplate reader. The activity of the peptide was also determined in the presence of NaCl to assess its salt sensitivity, with a final NaCl concentration of 400 mM. […] The bactericidal efficacy of BMAP‐27B against bacteria in SIF or SGF was evaluated using the plate counting method at different time points.

CREC6 = assay type: in vitro ADME, Escherichia coli
Procedure: as §1

[1] = assay type: binding; settings: pH 7.4
Procedure: The detailed steps of molecular docking are provided in the Supporting Information. Microcalorimetric experiments were conducted to examine the interaction between BMAP‐27B and the divalent cation zinc (Zn^2+) using ITC to determine the binding affinity of BMAP‐27B for Zn^2+. Both BMAP‐27B and Zn^2+ were dissolved in PBS (pH 7.4). Before the experiment, all samples were degassed in a sonication bath for 10 min. At 25°C, Zn^2+ was sequentially injected into the calorimetric cell containing BMAP‐27B, with a total of 25 injections performed, allowing for a 180‐s equilibration interval between injections. The resulting data were analyzed using software to calculate K d.

GRFKRLRKKLKKLFKKLSPVIPLLHLG [BMAP-27B]
relative weights of the heart, liver, spleen, and kidneys (BALB/c mice): no significant differences
MIC (Acinetobacter baumannii): ≤ 6.250 µg/mL
protease concentration resulting in loss of activity (bacterial suspension): above 200 μg/ml
efficacy after co‐incubation with fetal bovine serum (CREC6 and CRKP2): maintained considerable efficacy
activity in simulated intestinal fluid (SIF) (CREC6): no activity
viable bacterial count after incubation with simulated gastric fluid (SGF) (CREC6): lower than that of the control group
Kd [1]: 31.36 µM
